Laboratory results published in patent US6620828B2, “Thiazole compounds and pharmaceutical compositions for inhibiting protein kinases and methods for their use” (Agouron Pharmaceuticals, Inc., priority 1999, dated 2003).

What was measured:
[1] = biological target: T1, phosphorylated VEGF-R2Δ50 (FLVK-P) (Homo sapiens, UniProt P35968, DEL940-989/E990V); experiment: VEGF-R2 coupled spectrophotometric (FLVK-P) assay; format: biochemical
T1 construct: VEGF-R2Δ50 contains residues 806-939 and 990-1171; made in house; host or cells: baculovirus/insect cells
T1 sequence (P35968 with tags, fused parts or gaps DEL940-989/E990V limits assumed): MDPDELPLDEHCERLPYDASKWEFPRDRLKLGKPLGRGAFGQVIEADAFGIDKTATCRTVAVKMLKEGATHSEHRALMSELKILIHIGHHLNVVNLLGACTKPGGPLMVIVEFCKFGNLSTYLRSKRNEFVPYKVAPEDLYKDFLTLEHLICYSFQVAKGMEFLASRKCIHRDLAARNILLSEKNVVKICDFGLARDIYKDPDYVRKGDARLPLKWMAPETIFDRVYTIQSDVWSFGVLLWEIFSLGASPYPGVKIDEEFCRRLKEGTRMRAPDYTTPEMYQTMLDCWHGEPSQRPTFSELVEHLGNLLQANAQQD
Procedure, shortened: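 Baculovirus-expressed human VEGF-R2Δ50 (residues 806-939/990-1171, E990V) was autophosphorylated with 3 mM ATP, 40 mM MgCl2 for 2 h at 4° C. ADP formation was coupled via PK/LDH to NADH oxidation, read at 340 nm, with 5.1 mM poly(E4Y1), 1 mM ATP, 25 mM MgCl2, Hepes pH 7.5. Ki came from activity across compound concentrations.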

[2] = biological target: T2, FGF-R1 (Homo sapiens, UniProt P11362, C488A/C584S/L457V); experiment: FGF-R spectrophotometric assay; format: biochemical; settings: for inhibition at 1 µM: Table 3, % inh @ 1 uM, read-out: FGF-P Ki (nM) (% inh @ 1 uM)
T2 construct: starting from the endogenous methionine residue 456 to glutamate 766; made in house; host or cells: baculovirus vector expression system
T2 sequence (P11362 456-766 L457V/C488A/C584S): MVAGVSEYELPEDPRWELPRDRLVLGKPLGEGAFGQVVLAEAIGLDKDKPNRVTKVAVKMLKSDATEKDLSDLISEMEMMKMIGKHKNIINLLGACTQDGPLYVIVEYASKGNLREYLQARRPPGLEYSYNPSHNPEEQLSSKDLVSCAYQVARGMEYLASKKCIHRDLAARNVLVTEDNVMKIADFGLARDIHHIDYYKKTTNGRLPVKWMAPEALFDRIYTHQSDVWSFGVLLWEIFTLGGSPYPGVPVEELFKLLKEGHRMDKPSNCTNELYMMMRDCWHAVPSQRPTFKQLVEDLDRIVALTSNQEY
Description: FGF-R1 Construct for Assay: The intracellular kinase domain of human FGF-R1 was expressed using the baculovirus vector expression system starting from the endogenous methionine residue 456 to glutamate 766, according to the residue numbering system of Mohammadi et al., Mol. Cell. Biol., 16, 977-989 (1996). In addition, the construct also has the following 3 amino acid substitutions: L457V, C488A, and C584S.
The spectrophotometric assay was carried out as described above for VEGF-R2, except for the following changes in concentration: FGF-R=50 nM, ATP=2 mM, and poly(E4Y1)=15 mM.

[3] = biological target: T3, CHK1 (Homo sapiens, UniProt O14757); experiment: CHK1 high-throughput screening; format: biochemical; settings: read-out: % inhibition @ 20 μM, Table 4, repeated entries per example
T3 sequence (O14757 1-476): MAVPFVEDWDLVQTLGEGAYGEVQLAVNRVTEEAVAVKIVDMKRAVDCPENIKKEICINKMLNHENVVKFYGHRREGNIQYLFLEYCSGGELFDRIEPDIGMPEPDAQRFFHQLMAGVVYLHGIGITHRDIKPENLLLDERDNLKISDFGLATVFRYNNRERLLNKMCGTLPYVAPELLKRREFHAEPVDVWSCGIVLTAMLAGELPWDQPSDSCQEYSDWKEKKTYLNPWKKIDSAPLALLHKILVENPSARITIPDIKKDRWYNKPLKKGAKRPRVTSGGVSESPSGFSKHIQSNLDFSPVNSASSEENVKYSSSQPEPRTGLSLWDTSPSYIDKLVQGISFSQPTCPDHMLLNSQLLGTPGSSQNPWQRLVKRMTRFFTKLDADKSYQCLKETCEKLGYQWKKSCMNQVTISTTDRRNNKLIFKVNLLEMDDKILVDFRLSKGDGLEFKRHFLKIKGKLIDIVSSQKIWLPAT

[4] = biological target: T4, unphosphorylated VEGF-R2Δ50 (FLVK) (Homo sapiens, UniProt P35968, DEL940-989/E990V); experiment: VEGF-R2 coupled spectrophotometric assay, unphosphorylated enzyme (FLVK); format: biochemical; settings: Table 3; some entries 'Slow binder'
T4 construct: VEGF-R2Δ50 contains residues 806-939 and 990-1171; made in house; host or cells: baculovirus/insect cells
T4 sequence (P35968 with tags, fused parts or gaps DEL940-989/E990V limits assumed): as the sequence (P35968 with tags, fused parts or gaps DEL940-989/E990V limits assumed) above
Procedure, shortened: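 Unphosphorylated VEGF-R2Δ50 (5 to 40 nM) with 20 mM poly(E4Y1), 3 mM ATP, 60 mM MgCl2, 2 mM MnCl2 in 200 mM Hepes pH 7.5. ADP production coupled via PK/LDH to NADH oxidation, read at 340 nm. Ki from activity at varying compound concentrations.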

[5] = biological target: T5, LCK tyrosine kinase (Homo sapiens, UniProt P06239, C224D/P223M); experiment: LCK spectrophotometric assay; format: biochemical; settings: Table 3, read-out: LCK (% inh @ 1 uM)
T5 construct: starting from amino acid residue 223 to the end of the protein at residue 509; made in house; host or cells: insect cells
T5 sequence (P06239 223-509 P223M/C224D): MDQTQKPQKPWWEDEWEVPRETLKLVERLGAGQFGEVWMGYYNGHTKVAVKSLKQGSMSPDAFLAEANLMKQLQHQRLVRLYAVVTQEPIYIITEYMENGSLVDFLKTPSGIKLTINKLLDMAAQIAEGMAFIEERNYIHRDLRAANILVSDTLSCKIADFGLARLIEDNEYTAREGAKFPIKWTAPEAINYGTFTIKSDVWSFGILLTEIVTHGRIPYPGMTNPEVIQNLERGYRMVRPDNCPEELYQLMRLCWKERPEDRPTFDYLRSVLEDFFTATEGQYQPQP

[6] = system: human umbilical vein endothelial cells (HUVEC); experiment: HUVEC proliferation assay; format: cell-based; settings: Homo sapiens, HUVEC, Table 3
Procedure, shortened: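 Readout was MTT dye reduction (A595) after 72 h of stimulation with VEGF at 6 ng/ml final. Compound, in 0.1% DMSO final, was added 1 h before VEGF to HUVEC starved 24 h in 1% FBS. % inhibition was scaled between VEGF-alone and unstimulated wells; IC50 was fitted from triplicate dose curves.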

[7] = system: lung cancer cells (line MV522); experiment: Cancer cell proliferation (MV522) assay; format: cell-based; settings: MV522, Table 3

Row | Structure (SMILES) | Ki ([1]; Table 2, spectrophotometric assay) [nM] | Ki ([2]; Table 2) [nM] | inhibition at 20 µM [3] [%] | melting point [°C] | Ki [4] [nM] | inhibition at 1 µM [2] [%] | inhibition at 1 µM [5] [%] | IC50 [7] [nM] | inhibition at 0.05 µM ([1]; Table 3, at 50 nM) [%] | IC50 [6] [nM]
1 | COc1cc(O)cc(-c2csc(-c3sc(Nc4cc(OC)c(OC)c(OC)c4)nc3N)n2)c1 [A(19), 3-[4′-Amino-2′-(3,4,5-trimethoxy-phenylamino)-[2,5′]bithiazolyl-4-yl]-5-methoxyphenol] | 4 | 390 | 78.5 | 208 to 210 | – | – | – | – | – | –
2 | CCn1nc(C)cc1C(=O)Nc1ccc(C)c(-c2noc(-c3sc(Nc4cccc(CN5CCCC5)c4)nc3N)n2)c1 [B(9)] | – | – | – | – | 0.36 | 78 | 91 | – | – | –
3 | COc1cccc(C(=O)Nc2cc(-c3noc(-c4sc(Nc5ccc(N6CCOCC6)nc5)nc4N)n3)c(F)cc2F)c1 [B(18), N-(5-{5-[4-Amino-2-(6-morpholin-4-yl-pyridin-3-ylamino)-thiazol-5-yl]-[1,2,4]oxadiazol-3-yl}-2,4-difluoro-phenyl)-3-methoxy-benzamide] | – | – | – | – | 0.9 | 8 | < 0 | 1900 | – | 10
4 | COc1cc(Nc2nc(N)c(-c3nc(-c4cccc(NC(=O)c5cc(C)c(O)c(C)c5)c4)cs3)s2)cc(OC)c1OC [D(58), N-{3-[4′-Amino-2′-(3,4,5-trimethoxy-phenylamino)-[2,5′]bithiazolyl-4-yl]-phenyl}-4-hydroxy-3,5-dimethyl-benzamide] | – | – | – | – | 1.4 | 23 | 29 | > 10000 | – | > 100
5 | COc1cc(Nc2nc(N)c(-c3nc(-c4cccc(NC(=O)c5cnc6ccccc6c5)c4)cs3)s2)cc(OC)c1OC [D(60), Quinoline-3-carboxylic acid {3-[4′-amino-2′-(3,4,5-trimethoxy-phenylamino)-[2,5′]bithiazolyl-4-yl]-phenyl}-amide] | – | – | – | – | 1.4 | 10 | 11 | – | – | > 100
6 | COc1cc(Nc2nc(N)c(-c3nc(-c4cc(NC(=O)c5cccc(Cl)c5)c(F)cc4F)no3)s2)cc(OC)c1OC [D(66), N-(5-{5-[4-Amino-2-(3,4,5-trimethoxy-phenylamino)-thiazol-5-yl]-[1,2,4]oxadiazol-3-yl}-2,4-difluoro-phenyl)-3-chloro-benzamide] | – | – | – | – | 1 | 55 | 15 | > 10000 | – | 4.2
7 | COc1cccc(C(=O)Nc2cc(-c3noc(-c4sc(Nc5cc(OC)c(OC)c(OC)c5)nc4N)n3)c(F)cc2F)c1 [D(67), N-(5-{5-[4-Amino-2-(3,4,5-trimethoxy-pheny-1-amino)-thiazol-5-yl]-[1,2,4]oxadiazol-3-yl}-2,4-difluoro-phenyl)-3-methoxy-benzamide] | – | – | – | – | – | 13 | 1 | > 10000 | – | 4.1
8 | COc1cc(Nc2nc(N)c(-c3nc(-c4cc(NC(=O)c5cccc(Cl)c5)c(F)cc4Cl)no3)s2)cc(OC)c1OC [D(69), N-(5-{5-[4-Amino-2-(3,4,5-trimethoxy-phenylamino)-thiazol-5-yl]-[1,2,4]oxadiazol-3-yl}-4-chloro-2-fluoro-phenyl)-3-chloro-benzamide] | – | – | – | – | 0.5 | 78 | 79 | 2300 | – | 15
9 | CNC(=O)Nc1nc(N)c(-c2nc(-c3cccc(NC(=O)c4cccc(Cl)c4)c3)cs2)s1 [F(10), N-{3-[4′-Amino-2′-(3-methyl-ureido)-[2,5′]bithiazolyl-4-yl]-phenyl}-3-chloro-benzamide] | – | – | – | – | 0.14 | 47 | 42 | – | – | 8.5
10 | Cc1cccc(C(=O)Nc2cccc(-c3noc(-c4sc(NC(=O)NC(C)C)nc4N)n3)c2)c1 [F(13), N-(3-{5-[4-Amino-2-(3-isopropyl-ureido)-thiazol-5-yl]-[1,2,4]oxadiazol-3-yl}-phenyl)-3-methyl-benzamide] | – | – | – | – | 0.25 | 25 | 29 | – | – | 16
11 | COc1cccc(C(=O)Nc2cc(-c3noc(-c4sc(NC(=O)NCCCN5CCCC5=O)nc4N)n3)c(F)cc2F)c1 [O(2)] | – | – | – | – | 0.33 | 28 | 7 | – | – | –
12 | COCC(C)NC(=O)Nc1nc(N)c(-c2nc(-c3cc(NC(=O)c4cccc(OC)c4)c(F)cc3F)cs2)s1 (centres unmarked) [O(14), N-(5-{4′-Amino-2′-[3-(2-methoxy-1-methyl-ethyl)-ureido]-[2,5′]bithiazolyl-4-yl}-2,4-difluoro-phenyl)-3-methoxy-benzamide] | – | – | – | – | – | 10 | 0 | – | – | 16

Now from value to compound, other results behind:

Row | Ki ([1]; Table 2, spectrophotometric assay) [nM] | Ki ([2]; Table 2) [nM] | inhibition at 20 µM [3] [%] | melting point [°C] | Ki [4] [nM] | inhibition at 1 µM [2] [%] | inhibition at 1 µM [5] [%] | IC50 [7] [nM] | inhibition at 0.05 µM ([1]; Table 3, at 50 nM) [%] | Structure (SMILES) | IC50 [6] [nM]
13 | – | – | – | – | 1.6 | 52 | 29 | 3600 | – | COc1cc(Nc2nc(N)c(-c3nc(-c4cc(NC(=O)OC(C)(C)C)ccc4Cl)no3)s2)cc(OC)c1OC [B(12), (3-{5-[4-Amino-2-(3,4,5-trimethoxy-phenylamino)-thiazol-5-yl]-[1,2,4]oxadiazoyl}-4-chloro-phenyl)-carbamic acid tert-butyl ester] | 15
14 | – | – | – | – | 0.26 | 39 | 34 | – | – | COc1cccc(C(=O)Nc2ccc(C)c(-c3noc(-c4sc(Nc5ccccc5)nc4N)n3)c2)c1 [B(35)] | –
15 | – | – | – | – | 0.56 | 23 | 72 | – | – | COc1cccc(C(=O)Nc2ccc(C)c(-c3noc(-c4sc(Nc5ccc(N6CCOCC6)nc5)nc4N)n3)c2)c1 [B(36), 3-[3-[(3-methoxybenzoyl)amino]-6-methyl-phenyl]-5-[2-[3-amino-6-(4-morpholinyl)-pyridinyl]-4-amino-5-thiazolyl]-1,2,4-oxadiazole] | –
16 | – | – | – | – | 2.8 | 54 | 44 | 3100 | – | COc1cc(Nc2nc(N)c(-c3nc(-c4cccc(NC(=O)CC5CC6CCC5C6)c4)cs3)s2)cc(OC)c1OC (centres unmarked) [D(59), N-{3-[4′-Amino-2′-(3,4,5-trimethoxy-phenylamino)-[2,5′]bithiazolyl-4-yl]-phenyl}-2-bicyclo[2.2.1]hept-2-yl-acetamide] | > 100
17 | – | – | – | – | – | 9 | 4 | > 10000 | – | COc1cc(Nc2nc(N)c(-c3nc(-c4cccc(NC(=O)c5ncoc5-c5ccccc5)c4)cs3)s2)cc(OC)c1OC [D(61), 5-Phenyl-oxazole-4-carboxylic acid {3-[4′-amino-2′-(3,4,5-trimethoxy-phenylamino)-[2,5′]bithiazolyl-4-yl]-phenyl}-amide] | 165
18 | – | – | – | – | 0.19 | 9 | 3 | – | 87 | CNC(=O)Nc1nc(N)c(-c2nc(-c3cc(NC(=O)c4cccc(OC)c4)c(F)cc3F)no2)s1 [O(4), N-(5-{5-[4-Amino-2-(3-methyl-ureido)-thiazol-5-yl]-[1,2,4]oxadiazol-3-yl}-2,4-difluoro-phenyl)-3-methoxy-benzamide] | 0.64
19 | – | – | – | – | 0.5 | 28 | 2 | – | – | COc1cccc(C(=O)Nc2cc(-c3csc(-c4sc(NC(=O)NCCCN5CCCC5=O)nc4N)n3)c(F)cc2F)c1 [O(15), N-[5-(4′-Amino-2′-{3-[3-(2-oxo-pyrolidin-1-yl)-propyl]-ureido}-[2,5′]bithiazolyl-4-yl)-2,4-difluoro-phenyl]-3-methoxy-benzamide] | –
